Experimental data taken from US20250235504A1, “ENHANCEMENT OF CD47 BLOCKADE WITH TAXANES FOR CD47+ CANCER THERAPY” (Pfizer Inc., priority 2021, published 2025).

What was measured:
[1] = test system: human B cell lymphoma cell line (Toledo); assay: Macrophage phagocytosis assay with VPD450-labeled Toledo cells (flow cytometry); type: cell-based; settings: two hours co-culture, FIG. 1
Text: Heparinized whole blood was obtained from normal healthy human donors (Biological Specialty Corporation) and informed consent was obtained from all donors. Peripheral blood mononuclear cells (PBMCs) were isolated over Ficoll-Paque Plus density gradient (GE Healthcare) and CD14+ monocytes were isolated from PBMCs by positive selection using CD14 antibody-coated MicroBead separation (Miltenyi Biotec). Monocytes were differentiated into macrophages by culturing for seven days in X-Vivo-15 media (Lonza) supplemented with M-CSF (PeproTech), at which point paclitaxel was added to the macrophage culture for an additional six days. On the day of the phagocytosis assay, macrophages were co-cultured with violet proliferation dye 450 (VPD450)-labeled human B cell lymphoma cell line (Toledo) in the presence of 1 μM human SIRPαFc (IgV domain of human SIRPα variant 2 fused with IgG1 Fc), 1 μM control Fc [human IgG1 Fc region (hinge-CH2-CH3)] or nothing (no treatment, NT) for two hours. Phagocytosis was assessed as % VPD450+ cells of live, single CD14+CD11b+ macrophages by flow cytometry. Results are shown in FIG. 1 and are duplicates from a single experiment.

[2] = biological target: human CD47 (human) (UniProt Q08722); assay: cell-based or functional assay
Chain of UniProt Q08722 (Q08722 19-323): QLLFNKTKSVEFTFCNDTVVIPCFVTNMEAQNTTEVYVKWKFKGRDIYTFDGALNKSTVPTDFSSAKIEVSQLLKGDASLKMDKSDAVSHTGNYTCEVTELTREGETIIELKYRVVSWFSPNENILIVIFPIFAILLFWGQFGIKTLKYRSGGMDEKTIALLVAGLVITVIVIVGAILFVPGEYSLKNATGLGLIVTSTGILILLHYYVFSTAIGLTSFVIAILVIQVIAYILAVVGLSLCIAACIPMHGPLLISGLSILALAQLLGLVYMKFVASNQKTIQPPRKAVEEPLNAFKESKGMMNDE

SIRPαFc: IgV domain of human SIRPα variant 2 fused with IgG1 Fc
% phagocytosis (% VPD450+ cells of live, single CD14+CD11b+ macrophages) ([1]; 1 μM SIRPαFc, "no treatment" macrophages (not cultured in paclitaxel)): around 9% | phagocytosis of the VPD450-labeled B cell lymphoma cells (in words) ([1]; 1 μM protein): substantial phagocytosis

human SIRPαFc (IgV domain of human SIRPα variant 2 fused with IgG1 Fc) (Fc fusion)
% phagocytosis (% VPD450+ cells of live, single CD14+CD11b+ macrophages) of Toledo cells, 1 µM SIRPαFc, macrophages cultured in paclitaxel [2]: 15% | % phagocytosis (% VPD450+ cells of live, single CD14+CD11b+ macrophages) of Toledo cells, 1 µM SIRPαFc, macrophages not cultured in paclitaxel [2]: 9%
